Data reported in patent publication US20220323471A1 (priority 2019, published 2022).

Legend:
[1] = system: type I IFN response (IFN-β); assay: Type I IFN response (IFN-β induction, qRT-PCR) in ZIKV-challenged CHME3 cells; type: cell-based, human; conditions: ZIKV MR766 MOI 1, 0.1 μM and 1 μM, 48 hours
Description: ZIKV infection activates the type I IFN response via IFN-stimulated genes that are activated by the host after recognition of viral components. If ZIKV is inhibited at a pre-fusion step, viral nucleic acids and proteins will not be exposed to the host cytosol; thus the type I IFN response will not be activated. To test whether DGP treatment prevents activation of the type I IFN response, CHME3 cells we challenged using ZIKV MR766 at an MOI of 1 in the presence of different DGP concentrations. At 48 hours post-challenge, the type I IFN response was assessed using qRT-PCR to measure IFN-β induction (FIG. 5).
ZIKV RNA levels were measured using real-time PCR. HT1080 and VERO cells were challenged by ZIKV MR766 at an MOI of 1 in the presence of DGP. At 48 hours post-challenge, cells were lysed and total RNA was extracted using trizol. Total RNA was used to determine the levels of ZIKV RNA by real-time PCR using specific primers against ZIKA. qRT-PCR was carried out using SYBR green in a 20-μl final volume using a MASTERCYCLER proS machine. The primers used to detect ZIKV were: SEQ ID NO. 1: 5′-TT […]-3′-Forward (Genome Position 941-964) and SEQ ID NO. 2: 5′-[…]-3′-Reverse (Genome position 1123-1103) (AY632535.2). For the detection of SeV, the following primers were used: SEQ ID NO. 3: 5′-[…]-3′-Forward (Genome position 210-233) and SEQ ID NO. […]

EBV RVP = type: cell-based, Ebola virus
ZIKV strain MR766 = assay: In situ (+)-ZIKV RNA hybridization in VERO cells; type: cell-based, Zika virus; conditions: MOI 0.5, 1 μM, 48 hours
Method: To determine the ZIKV life cycle stage at which DGP acts, two approaches were used to measure the production of viral RNA: 1) In situ hybridization to image viral RNA by using fluorescent probes, and 2) Reverse transcription PCR (qRT-PCR) to quantify viral RNA. […] At 48 hours post-infection, cells were fixed/permeabilized and ZIKV positive-strand RNA and detected by in situ hybridization using a specific fluorescently labeled negative-strand probe (green) and cell nuclei were stained using 4%6-diamidino-2-phenylindole (DAPI; blue). Twenty-five random images were captured for each treatment (Mock, ZIKV MR766, and ZIKV MR766+DGP 1 μM). To quantify the extent of infection, 400 cells per treatment were randomly counted and the percentage of infected (green) cells were calculated.
ZIKV RNA in cultured adherent cells was probed using the RNAscope reagents and protocol (Advanced Cell Diagnostics) (Wang, F. et al. 2012, “RNAscope: a novel in situ RNA analysis platform for formalin-fixed, paraffin-embedded tissues.” J Mol Diagn 14(1): 22-29) with some modifications as previously described (Puray-Chavez, M. 2017, “Multiplex single-cell visualization of nucleic acids and protein during HIV infection.” Nat Commun 8(1): 1882. Fixed cells on coverslips were washed twice with PBS, then incubated with 0.1% Tween-20 in PBS (PBS-T) for 10 min at room temperature (RT) and washed in PBS for 1 min. […]

SARS-CoV-2-GFP = type: cell-based
JEV-RVP = type: cell-based, Japanese encephalitis virus; conditions: VERO cells; DGP 1 μM; NH4Cl 20 mM

COc1cc2c(OC3OC(C)C(O)C(O)C3O)c3c(c(-c4ccc5c(c4)OCO5)c2cc1OC)C(=O)OC3 (stereo not drawn) [DGP, 6-deoxyglucose-diphyllin] was tested, and the “activation of the type I IFN response (IFN-β induction)” value [1] was “substantially decreased and/or prevented”, the “EBV RVP infection” value (EBV RVP) was “almost undetectable” and the “% Infected Cells” value (ZIKV strain MR766) was 3.05%. For the same compound, the “Infected Cells (Green)” value (ZIKV strain MR766; of 400 cells counted) was 12, the “concentration sufficient to potently block the entry of SARS-CoV-2-GFP” value (SARS-CoV-2-GFP) was 0.25 µM and the “JEV RVP infection” value (JEV-RVP) was “almost undetectable”.
